In patent publication US20120083013A1, “GLUCOSYLTRANSFERASE SPECIFIC TO POSITION-4 OF FUROFURAN-TYPE LIGNAN, AND POLYNUCLEOTIDE ENCODING SAME” (Suntory Holdings Limited, priority 2009, published 2012):

What was measured:
RengUGT14 = assay: glycosyl acceptor selectivity of recombinant RengUGT14 (standard enzyme reaction, HPLC analysis); type: biochemical, Forsythia koreana; conditions: 1 mM UDP-glucose, 100 μM glycosyl acceptor substrate, pH 7.5, 30° C., one hour; for transglycosylation activity (activity against the lignan of structural formula (Ia) made 100): relative activity as glycosyl acceptor substrate
Procedure: To clarify the biochemical functions of the enzymes, the two enzymes were expressed in Escherichia coli. Using the plasmid for two RengUGT Escherichia coli expression obtained above, Escherichia coli BL21 (DE3) strain was transformed in a conventional manner. The resulting transformants were shake cultured in 4 ml of LB medium (10 g/l tryptone peptone, 5 g/l yeast extract, 1 g/l NaCl) containing 50 μg/ml of ampicillin at 37° C. overnight. When the cells reached the stationary phase, 4 ml of the culture broth was inoculated onto 80 ml of fresh medium of the same composition, followed by shake culture at 37° C. At the point when the cell turbidity (OD 600) reached approximately 0.5, IPTG in a final concentration of 0.5 mM was added to the cells, followed by shake culture at 18° C. for 20 hours. The following procedures were all carried out at 4° C. The transformants cultured were collected by centrifugation (5,000×g, 10 mins.) and suspended by adding 1 ml/g cell of Buffer S (20 mM HEPES buffer (pH 7.5), 20 mM imidazole and 14 mM […]. Subsequently, the suspension was ultrasonicated (15 secs×8 times) and then centrifuged (15,000×g, 15 mins.). The supernatant obtained was recovered as a crude enzyme solution. The crude enzyme solution was loaded onto His SpinTrap (GE Healthcare), which had been equilibrated with Buffer S, and centrifuged (70×g, 30 secs.). After washing with the buffer, the proteins bound to the column were eluted stepwise with 5 ml each of Buffer S containing 100 mM and 500 mM imidazole. In each of the eluted fractions, the buffer was replaced through a Microcon YM-30 (Amicon) by 20 mM HEPES buffer (pH 7.5)/14 mM β-mercapto ethanol (magnification of dialysis, ×1000). As a result of the SDS-PAGE analysis, in the fraction eluted with […], the protein was confirmed at approximately 50 KDa of the estimated molecular weight for the two RengUGTs. This fraction was used for the enzyme analysis (FIG. 2). Conditions for the standard enzyme reaction are as follows. […] Based on the analysis that the spectra from 220 nm to 330 nm were measured using SPD-10AV (Shimadzu Corp.), search was made for substances having two absorption maxima (230 nm and 280 nm) inherent to lignans. Under the conditions, the lignan of structural formula (Ia) was detected at approximately 11.6 minutes, the lignan of structural formula (Ib) at approximately 12.2 minutes, the lignan of structural formula (Ic) at approximately 13.8 minutes, and the lignan of structural formula (V) at approximately 9.8 minutes. The expression level of RengUGT14 recombinant protein was high in Escherichia coli (FIG. 2), and the glycosyl acceptor selectivity was evaluated using this enzyme. […]

RengUGT13 = assay: glucosyltransferase reaction of recombinant RengUGT13 with lignan (HPLC, LC-MS of the product); type: biochemical, Forsythia koreana; conditions: 1 mM UDP-glucose, 100 μM glycosyl acceptor substrate, pH 7.5, 30° C., one hour
Procedure: To clarify the biochemical functions of the enzymes, the two enzymes were expressed in Escherichia coli. Using the plasmid for two RengUGT Escherichia coli expression obtained above, Escherichia coli BL21 (DE3) strain was transformed in a conventional manner. The resulting transformants were shake cultured in 4 ml of LB medium (10 g/l tryptone peptone, 5 g/l yeast extract, 1 g/l NaCl) containing 50 μg/ml of ampicillin at 37° C. overnight. When the cells reached the stationary phase, 4 ml of the culture broth was inoculated onto 80 ml of fresh medium of the same composition, followed by shake culture at 37° C. […]
Lc-2010c (Shimadzu Corp.) was used for LC; eluent A: 0.1% TFA and eluent B: 0.1% TFA/90% acetonitrile as the moving phase; Develosil-C30-UG5 (Nomura Chemical, 4.6 mm×150 mm) as the column at 40° C. […] Based on the analysis that the spectra from 220 nm to 330 nm were measured using SPD-10AV (Shimadzu Corp.), search was made for substances having two absorption maxima (230 nm and 280 nm) inherent to lignans. Under the conditions, the lignan of structural formula (Ia) was detected at approximately 11.6 minutes, the lignan of structural formula (Ib) at approximately 12.2 minutes, the lignan of structural formula (Ic) at approximately 13.8 minutes, and the lignan of structural formula (V) at approximately 9.8 minutes. […]

Compound | transglycosylation activity (activity against the lignan of structural formula (Ia) made 100) (RengUGT14) | glucose transfer to the lignan by RengUGT13 (product peak at HPLC, monoglucoside by LC-MS) (RengUGT13) | glucose transfer to the lignan by RengUGT14 (product peak at HPLC, monoglucoside by LC-MS) (RengUGT14)
COc1cc([C@H]2OC[C@H]3[C@@H]2CO[C@H]3c2ccc(O)c(OC)c2)ccc1O [structural formula (Ib)] | 112 |  | 
COc1cc([C@H]2OC[C@H]3[C@@H]2CO[C@@H]3c2ccc(O)c(OC)c2)ccc1O [structural formula (Ia)] | 100 | activity of transferring one molecule of glucose | activity of transferring one molecule of glucose
COc1cc([C@H]2OC[C@H]3[C@@H]2CO[C@H]3c2ccc(OC)c(OC)c2)ccc1O [structural formula (Ic)] | 128 |  | 
